The text below walks through data of PubChem BioAssay AID1963977 (Molecular Pharmacology Branch, DTP, NCI, 2024).

Where “and” joins values, the source holds several entries; their conditions need not be identical. Identical values can stand only once. Where only a bound is given, the exact number is not on record here.

In the assay the test system is 624824-186-R-J3-PDC multicell spheroids, viability. Put plainly: Anticancer human tumor 624824-186-R-J3-PDC patient-derived colon adenocarcinoma cell line growth inhibition [PI3K]. Particulars: for viability, T/C: stronger effect = lower value. The source says: Combinatorial screen of targeted agents with the PI3K inhibitors inavolisib, alpelisib, duvelisib, and copanlisib in multi-cell type tumor spheroids
A high-throughput screen of multi-cell type tumor spheroids was designed to identify active combinations of targeted small molecules and PI3K pathway inhibitors. Complex spheroids include a stromal component modeled by human endothelial cells (HUVEC) and fibroblasts modeled by human mesenchymal stem cells (MSCs). The concentration ranges selected for each drug and investigational agent were based upon clinically achievable concentrations if the clinical Cmax of the agent was known.
Compounds. The drugs and investigational agents: inavolisib (NSC800729), alpelisib (NSC765974), duvelisib (NSC772469), copanlisib (NSC816437), ipatasertib (NSC767898), afuresertib (NSC778305), talazoparib (NSC767125), sapanisertib (NSC764658), selumetinib (NSC741078), tovorafenib (DAY101, NSC766906), vemurafenib (NSC761431), ravoxertinib (NSC781343), sotorasib (NSC818433), MRTX1133 (NSC 836407), abemaciclib (NSC 768073), palbociclib (NSC758247), venetoclax (NSC 766270), SY5609 (NSC837396), enzalutamide (NSC755605), and darolutamide (NSC825331), were obtained from the National Cancer Institute (NCI) Developmental Therapeutics Program Chemical Repository. The FDA-approved anticancer drug set is available from the NCI Developmental Therapeutics Program. […] The stock solutions were prepared in dimethyl sulfoxide (DMSO, Sigma-Aldrich, St. Louis, MO, cat. D2650) at 800-fold the tested concentration and stored at -70 degrees C prior to their use. All drugs and investigational agents were tested over a range starting from a high concentration at or near the clinical Cmax and decreasing in half-log increments. If the clinical Cmax for an agent had not been determined, the highest concentration tested was 10 microM.
Cell Culture. All cells were maintained in an incubator at 37 degrees C and 5% CO2 with 95% humidity. The PDC lines were cultured according to standard operating procedures established by the NCI PDMR (https://pdmr.cancer.gov/sops/default.htm). All PDCs were thawed and cultured in Matrigel-coated flasks prepared with a working solution of 1X Ham's F-12 nutrient mix, without supplementation (Invitrogen, Waltham, MA, cat. 11765054), 100 U/mL penicillin-streptomycin (Invitrogen, cat. 15140122), and 2.5% Matrigel (Corning Inc., Corning, NY, cat. 354248) for the first three passages. The 354836-022-R-J1-PDC, 475296-252-R-J1-PDC, and 997726-040-R-J2-PDC lines were cultured in 6A media, which includes advanced DMEM/F-12 (Thermo Fisher Scientific, cat. 12634028), 10 mM HEPES (Thermo Fisher Scientific, cat. 15630080), 1X GlutaMAX supplement (Thermo Fisher Scientific, cat. 35050061), 0.1 mg/mL primocin (InvivoGen, San Diego, CA, cat. ant-pm-2), 10% defined fetal bovine serum, heat inactivated (HyClone Laboratories Inc., Logan, UT, cat. SH30070.03HI), 50% L-WRN conditioned media (ATCC, cat. CRL-3276), 1.25 mM N-Acetyl-L-cysteine (Sigma-Aldrich, cat. A9165), 10 mM nicotinamide (Sigma-Aldrich, cat. N0636), 1X B-27 supplement (Thermo Fisher Scientific, cat. 17504044), 1X N-2 supplement (Thermo Fisher Scientific, cat. 17502048), and 10 microM Y-27632 dihydrochloride (Tocris Bioscience, Bristol, United Kingdom, cat. 1254). The 624824-186-R-J2-PDC line was cultured in 6C/Colon 1B media, which includes all 6A media components plus 50 ng/mL human EGF recombinant protein (Thermo Fisher Scientific, cat. PHG0311). […]
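Further: spheroids exposed to agents for seven days before luminescence read.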
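Wherever viability, T/C is given: luminescent signal used as a stand-in for spheroid viability; percent viability relative to DMSO vehicle control wells taken as 100%.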

`C#Cc1c(F)ccc2cc(O)cc(-c3ncc4c(N5CC6CCC(C5)N6)nc(OCC56CCCN5CC(F)C6)nc4c3F)c12` (stereo unspecified) + CC(Nc1ncnc2nc[nH]c12)c1cc2cccc(Cl)c2c(=O)n1-c1ccccc1: the IC50 is over 10 µM (curve of first compound, second compound 0.0316 µM); over 10 µM (curve of first compound, second compound 0.1 µM); over 10 µM (curve of first compound, second compound 0.316 µM); over 10 µM (curve of first compound, second compound 1 µM); over 10 µM (curve of first compound, second compound 3.16 µM); over 10 µM (curve of first compound, second compound 10 µM). In addition, the viability, T/C (second compound 0.0316 µM, first compound 0.0316 µM) is 115%; the viability, T/C (second compound 0.0316 µM, first compound 0.1 µM) was 93.2%; the viability, T/C (second compound 0.0316 µM, first compound 0.316 µM) is 104%; the viability, T/C (second compound 0.0316 µM, first compound 1 µM) is 101%; the viability, T/C (second compound 0.0316 µM, first compound 3.16 µM) was 97%; the viability, T/C (second compound 0.0316 µM, first compound 10 µM) was 117%. The viability, T/C reads like this: (second compound 0.1 µM, first compound 0.0316 µM) 106%; (second compound 0.1 µM, first compound 0.1 µM) 99.2%; (second compound 0.1 µM, first compound 0.316 µM) 117%; (second compound 0.1 µM, first compound 1 µM) 113%; (second compound 0.1 µM, first compound 3.16 µM) 105%; (second compound 0.1 µM, first compound 10 µM) 115%. Moreover, the viability, T/C by setting is: (second compound 0.316 µM, first compound 0.0316 µM) 88.4%; (second compound 0.316 µM, first compound 0.1 µM) 103%; (second compound 0.316 µM, first compound 0.316 µM) 109%; (second compound 0.316 µM, first compound 1 µM) 102%; (second compound 0.316 µM, first compound 3.16 µM) 114%; (second compound 0.316 µM, first compound 10 µM) 115%. The viability, T/C was 102% (second compound 1 µM, first compound 0.0316 µM); 110% (second compound 1 µM, first compound 0.1 µM); 108% (second compound 1 µM, first compound 0.316 µM); 103% (second compound 1 µM, first compound 1 µM); 111% (second compound 1 µM, first compound 3.16 µM); 112% (second compound 1 µM, first compound 10 µM). The viability, T/C is, setting by setting: (second compound 3.16 µM, first compound 0.0316 µM) 96%; (second compound 3.16 µM, first compound 0.1 µM) 105%; (second compound 3.16 µM, first compound 0.316 µM) 105%; (second compound 3.16 µM, first compound 1 µM) 95.3%; (second compound 3.16 µM, first compound 3.16 µM) 100%; (second compound 3.16 µM, first compound 10 µM) 110%. Besides, the viability, T/C was 96.3% (second compound 10 µM, first compound 0.0316 µM); 97% (second compound 10 µM, first compound 0.1 µM); 94.5% (second compound 10 µM, first compound 0.316 µM); 92.8% (second compound 10 µM, first compound 1 µM); 98.3% (second compound 10 µM, first compound 3.16 µM); 85.7% (second compound 10 µM, first compound 10 µM).
In the case of `Cc1nc(NC(=O)N2CCCC2C(N)=O)sc1-c1ccnc(C(C)(C)C(F)(F)F)c1` (stereo unspecified), the viability, T/C was 102% [middle of 8 runs] (compound 0.0316 µM); 108% [middle of 8 runs] (compound 0.1 µM); 109% [middle of 8 runs] (compound 0.316 µM); 107% [middle of 8 runs] (compound 1 µM); 94% [middle of 8 runs] (compound 3.16 µM); 72.8% [middle of 8 runs] (compound 10 µM). Also, the IC50 (compound alone, run of 04/24/2023) is over 10 µM.
As to `Cn1ncc(Cl)c1-c1cc(C(=O)NC(CN)Cc2cccc(F)c2)sc1Cl` (stereo unspecified), the viability, T/C is, setting by setting: (compound 0.0316 µM) 104% [middle of 4 runs]; (compound 0.1 µM) 101% (2×) and 112% and 104%; (compound 0.316 µM) 95.1% [middle of 4 runs]; (compound 1 µM) 76.3% [middle of 4 runs]; (compound 3.16 µM) 67.9% [middle of 4 runs]. Further, the IC50 (curve of compound) was 8.4 µM and > 10 µM and 5.42 µM.
Turning to `CC(C)NCC(C(=O)N1CCN(c2ncnc3c2C(C)CC3O)CC1)c1ccc(Cl)cc1` (stereo unspecified), the viability, T/C runs as follows: (compound 0.0316 µM) 101% [middle of 4 runs]; (compound 0.1 µM) 101% [middle of 4 runs]; (compound 0.316 µM) 102% (2×) and 100% and 105%; (compound 1 µM) 82% [middle of 4 runs]; (compound 3.16 µM) 67.8% [middle of 4 runs]; (compound 10 µM) 57.8% [middle of 4 runs]. Also, under “curve of compound”, the IC50 was > 10 µM and 6.5 µM.
Take `CC(Cn1ccc(-c2ccc(C#N)c(Cl)c2)n1)NC(=O)c1cc(C(C)O)[nH]n1` (stereo unspecified): the viability, T/C runs as follows: (compound 0.0316 µM) 96.5% [middle of 4 runs]; (compound 0.1 µM) 97.2% [middle of 4 runs]; (compound 0.316 µM) 105% [middle of 4 runs]; (compound 1 µM) 95.5% [middle of 4 runs]; (compound 3.16 µM) 99.4% [middle of 4 runs]; (compound 10 µM) 104% [middle of 4 runs]. The IC50 (curve of compound) was over 10 µM.
As to `C#Cc1c(F)ccc2cc(O)cc(-c3ncc4c(N5CC6CCC(C5)N6)nc(OCC56CCCN5CC(F)C6)nc4c3F)c12` (stereo unspecified), the viability, T/C was 120% and 98.2% and 102% (2×) (compound 0.0316 µM); 105% and 102% (2×) and 101% (compound 0.1 µM); 101% [middle of 4 runs] (compound 0.316 µM); 101% [middle of 4 runs] (compound 1 µM); 108% [middle of 4 runs] (compound 3.16 µM); 107% [middle of 4 runs] (compound 10 µM). In addition, where the note is “curve of compound”, the IC50 was over 10 µM.

By IC50 is commonly meant the concentration that inhibits the measured activity by half. The viability, T/C is the result in the treated group divided by that in the control group, in per cent.
